Laboratory results reported in US8435929B2, “1-aminocyclopropane carboxylic acid as a fruit thinner” (Valent BioSciences Corporation, priority 2009, dated 2013).

Assays:
Garnet Beauty peaches = assay: Field thinning study, fruit set of Garnet Beauty peaches; assay type: in vivo, peach; settings: application at petal fall
Description: A series of field studies on stone fruit thinning were performed over several seasons, on different varieties and in various locations to determine the consistency of the thinning effect of ACC. Even without the application of a chemical thinning agent, crop load (number of fruit remaining divided by the number of flowers or fruit prior to application) was variable. Chemical thinning of stone fruit is variable and dependent on many factors including variety and environment. An acceptable chemical thinning agent is one that gives a substantial and relatively consistent reduction in crop load for a given dose over a wide range of trials.
Follow up studies confirmed that higher rates (500 or 750 ppm ACC) produced a moderate to heavy crop load on Babygold #5 at two locations (Tables 8 and 9) and Garnet Beauty (Table 10).

Pink Lady apples = assay: Field thinning study, fruit set of Pink Lady apples; assay type: in vivo, apple; settings: for Number of fruit per limb / Total number of fruit: 5 days after full bloom
Babygold #5 peach = assay: Field thinning study, fruit set of Babygold #5 peach; assay type: in vivo
O'Henry peaches = assay: Field thinning study, fruit set, fruit weight and crop safety of O'Henry peaches
Summer Rich peaches = assay: Field thinning study, fruit set, fruit weight and crop safety of Summer Rich peaches
[1] = 500 ppm, application at petal fall, trial of Table 4
[2] = 500 ppm, application at petal fall, trial of Table 5 (other location)
[3] = 750 ppm, application at petal fall, trial of Table 4
[4] = 750 ppm, application at petal fall, trial of Table 5 (other location)

## NC1(C(=O)O)CC1 [ACC, 1-aminocyclopropane carboxylic acid]
Garnet Beauty peaches; 500 ppm
  Crop load (percent) of treated trees compared to the untreated control: 82%
  Percent fruit set: 27%
Garnet Beauty peaches; 750 ppm
  Crop load (percent) of treated trees compared to the untreated control: 58%
  Percent fruit set: 19%
Pink Lady apples; 100 ppm
  Number of fruit per limb: 64
  Total number of fruit: 175
Pink Lady apples; 300 ppm
  Number of fruit per limb: 62
  Total number of fruit: 165
Pink Lady apples; 500 ppm
  Number of fruit per limb: 61
  Total number of fruit: 169
Pink Lady apples; 1000 ppm
  Number of fruit per limb: 58
  Total number of fruit: 124
Pink Lady apples; highest rate tested (1000 ppm), early application (full bloom)
  Crop load (in words): reduced crop load slightly
Babygold #5 peach; 100 ppm, application at bloom
  Percent fruit set: 67%
Babygold #5 peach; 100 ppm, application at shuck split, 0.05% Regulaid adjuvant
  Percent fruit set: 85%
Babygold #5 peach; 300 ppm, application at shuck split, 0.05% Regulaid adjuvant
  Crop load (percent) of treated trees compared to the water control: 72%
Babygold #5 peach; 500 ppm, 10 mm fruitlet timing
  Percent Fruit Set: 6.7%
Babygold #5 peach; [1]
  Crop load (percent) of treated trees compared to the untreated control: 67%
  Percent fruit set: 32%
Babygold #5 peach; [2]
  Crop load (percent) of treated trees compared to the untreated control: 98%
  Percent fruit set: 42%
Babygold #5 peach; [3]
  Crop load (percent) of treated trees compared to the untreated control: 50%
  Percent fruit set: 24%
Babygold #5 peach; [4]
  Crop load (percent) of treated trees compared to the untreated control: 72%
  Percent fruit set: 31%
Babygold #5 peach; 1000 ppm, application at shuck split, 0.05% Regulaid adjuvant
  Crop load (percent) of treated trees compared to the water control: 14%
O'Henry peaches; 500 ppm at 15 mm fruit stage
  Crop load (percent) of treated trees compared to the untreated control: 38%
  Crop safety on vegetation (0-4 scale): 0.7 0-4 scale
  Fruit weight at maturity: 185 g
  Percent fruit set: 16%
O'Henry peaches; 500 ppm at petal fall
  Crop load (percent) of treated trees compared to the untreated control: 79%
  Crop safety on vegetation (0-4 scale): 0 0-4 scale
  Fruit weight at maturity: 200 g
  Percent fruit set: 23%
O'Henry peaches; 750 ppm at 15 mm fruit stage
  Crop load (percent) of treated trees compared to the untreated control: 21%
  Crop safety on vegetation (0-4 scale): 2.1 0-4 scale
  Fruit weight at maturity: 235 g
  Percent fruit set: 6%
O'Henry peaches; 750 ppm at petal fall
  Crop load (percent) of treated trees compared to the untreated control: 55%
  Crop safety on vegetation (0-4 scale): 0.5 0-4 scale
  Fruit weight at maturity: 205 g
  Percent fruit set: 11%
Summer Rich peaches; 500 ppm at 15 mm fruit stage
  Crop load (percent) of treated trees compared to the untreated control: 34%
  Crop safety on vegetation (0-4 scale): 3.0 0-4 scale
  Fruit weight at maturity: 144 g
  Percent fruit set: 24%
Summer Rich peaches; 500 ppm at petal fall
  Crop load (percent) of treated trees compared to the untreated control: 55%
  Crop safety on vegetation (0-4 scale): 0.5 0-4 scale
  Fruit weight at maturity: 140 g
  Percent fruit set: 39%
Summer Rich peaches; 750 ppm at 15 mm fruit stage
  Crop load (percent) of treated trees compared to the untreated control: 24%
  Crop safety on vegetation (0-4 scale): 3.5 0-4 scale
  Fruit weight at maturity: 169 g
  Percent fruit set: 17%
Summer Rich peaches; 750 ppm at petal fall
  Crop load (percent) of treated trees compared to the untreated control: 39%
  Crop safety on vegetation (0-4 scale): 0.8 0-4 scale
  Fruit weight at maturity: 151 g
  Percent fruit set: 28%
Summer Rich peaches; application at petal fall, stated for both varieties (Summer Rich and O'Henry)
  Leaf yellowing and leaf loss: minimized leaf yellowing and leaf loss
